Data taken from patent US9133194B2, “Cyclic tripeptide mimetics as plasmin inhibitors” (priority 2011, dated 2015).
pKi: −log10 of the molar value. Where two headings read alike, the source gives them in different places.

Legend:
plasmin = plasmin (Homo sapiens, UniProt P00747); test: Enzyme-kinetic determination of inhibition constants, plasmin (Chromozym PL); type: biochemical
Excerpt: (§1) The Ki values are the mean value of at least two determinations.

plasma kallikrein = plasma kallikrein (Homo sapiens, UniProt P03952); test: Enzyme-kinetic determination of inhibition constants, plasma kallikrein (Haemochrom PK); type: biochemical; conditions: Tris-HCl buffer pH 8.0, Dixon, mean of at least two determinations
Sequence of plasma kallikrein (P03952 391-638 limits assumed): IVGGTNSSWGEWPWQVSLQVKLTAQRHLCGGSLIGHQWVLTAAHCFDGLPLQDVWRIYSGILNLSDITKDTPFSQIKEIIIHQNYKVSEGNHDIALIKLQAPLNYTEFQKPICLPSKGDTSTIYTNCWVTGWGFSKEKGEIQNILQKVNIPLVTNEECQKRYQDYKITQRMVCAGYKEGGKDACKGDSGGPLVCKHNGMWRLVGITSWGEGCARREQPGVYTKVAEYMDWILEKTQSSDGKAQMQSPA
Sequence of plasma kallikrein (P03952 20-390 partner limits assumed): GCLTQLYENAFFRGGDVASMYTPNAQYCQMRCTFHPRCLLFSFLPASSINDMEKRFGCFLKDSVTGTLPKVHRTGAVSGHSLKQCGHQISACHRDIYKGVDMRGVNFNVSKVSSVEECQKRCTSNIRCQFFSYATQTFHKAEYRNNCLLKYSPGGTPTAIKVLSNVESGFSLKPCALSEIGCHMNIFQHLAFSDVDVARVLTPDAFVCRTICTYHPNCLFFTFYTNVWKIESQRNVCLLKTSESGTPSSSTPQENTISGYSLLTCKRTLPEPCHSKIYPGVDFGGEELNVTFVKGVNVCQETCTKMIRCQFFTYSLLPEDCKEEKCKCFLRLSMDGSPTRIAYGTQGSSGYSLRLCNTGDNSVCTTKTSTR
Excerpt: as §1

Thrombin (bovine) = Thrombin (bovine) (Bos taurus, UniProt P00735); test: Enzyme-kinetic determination of inhibition constants, thrombin (Pefachrome tPA); type: biochemical; conditions: Tris-HCl buffer pH 8.0, Dixon, mean of at least two determinations
Excerpt: as §1

Factor Xa (human) = Factor Xa (human) (Homo sapiens, UniProt P00742); test: Enzyme-kinetic determination of inhibition constants, factor Xa (Pefachrome FXa); type: biochemical; conditions: Tris-HCl buffer pH 8.0, Dixon, mean of at least two determinations
Sequence of Factor Xa (human) (P00742 235-488 limits assumed): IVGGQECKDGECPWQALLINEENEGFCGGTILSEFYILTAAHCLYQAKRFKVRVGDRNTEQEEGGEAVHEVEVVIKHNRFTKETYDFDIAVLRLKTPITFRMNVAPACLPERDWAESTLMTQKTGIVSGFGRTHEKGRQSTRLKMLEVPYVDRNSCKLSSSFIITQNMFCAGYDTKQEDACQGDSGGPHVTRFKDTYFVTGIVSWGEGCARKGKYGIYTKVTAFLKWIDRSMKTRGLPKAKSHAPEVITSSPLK
Sequence of Factor Xa (human) (P00742 41-179 partner limits assumed): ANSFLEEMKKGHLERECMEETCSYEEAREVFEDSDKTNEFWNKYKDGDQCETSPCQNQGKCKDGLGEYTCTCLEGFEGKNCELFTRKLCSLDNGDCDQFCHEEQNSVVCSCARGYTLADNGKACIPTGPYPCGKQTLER
Excerpt: as §1

trypsin = conditions: background, aprotinin; read-out: K for trypsin; cited from earlier work
[1] = cited from earlier work
[2] = Tris-HCl buffer pH 8.0, Dixon, mean of at least two determinations, read-out: Ki Plasmin

Sequence of plasmin (P00747 581-810 limits assumed): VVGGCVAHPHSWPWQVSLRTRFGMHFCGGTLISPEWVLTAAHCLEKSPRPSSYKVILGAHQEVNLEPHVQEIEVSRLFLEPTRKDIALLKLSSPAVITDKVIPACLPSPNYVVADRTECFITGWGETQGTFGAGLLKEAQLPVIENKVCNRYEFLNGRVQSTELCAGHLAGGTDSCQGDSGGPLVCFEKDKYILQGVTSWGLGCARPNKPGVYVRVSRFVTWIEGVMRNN
Sequence of plasmin (P00747 97-580 partner limits assumed): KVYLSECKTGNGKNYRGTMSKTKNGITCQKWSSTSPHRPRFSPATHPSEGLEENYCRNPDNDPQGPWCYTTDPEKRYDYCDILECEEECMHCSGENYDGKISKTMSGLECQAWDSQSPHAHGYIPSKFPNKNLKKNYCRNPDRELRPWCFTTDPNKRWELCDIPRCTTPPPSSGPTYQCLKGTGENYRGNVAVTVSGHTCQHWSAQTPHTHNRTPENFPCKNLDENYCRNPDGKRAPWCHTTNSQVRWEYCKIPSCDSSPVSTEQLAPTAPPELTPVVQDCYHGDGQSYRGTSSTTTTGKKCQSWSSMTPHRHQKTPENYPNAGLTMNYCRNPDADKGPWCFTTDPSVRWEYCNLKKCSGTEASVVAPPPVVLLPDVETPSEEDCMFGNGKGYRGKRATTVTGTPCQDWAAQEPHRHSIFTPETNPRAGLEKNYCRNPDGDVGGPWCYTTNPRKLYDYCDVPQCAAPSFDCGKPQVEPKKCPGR

| Compound | pKi (plasmin) | pKi (plasma kallikrein) | pKi (Thrombin (bovine)) | pKi (Factor Xa (human)) | pKi (plasmin; [2]) | pKi (trypsin) | risk of an anaphylactic shock ([1]; aprotinin applied for the first time) | risk of myocardial infarction and apoplectic stroke ([1]; compared to the control groups) | number of cases of kidney damage requiring subsequent dialysis ([1]; comparison with ε-aminocaproic acid or tranexamic acid (Mangano et al.)) | risk of an anaphylactic shock ([1]; repeated administration within 200 days) |
| --- | --- | --- | --- | --- | --- | --- | --- | --- | --- | --- |
| N=C(N)c1ccc(CNC(=O)[C@@H]2Cc3ccc(cc3)NC(=O)CCN3CCN(CCC(=O)Nc4ccc(cc4)C[C@@H](N)C(=O)N2)CC3)cc1 [Inhibitor 6] | 7.89 | 4.61 | 4.22 | 3.39 |  |  |  |  |  |  |
| N=C(N)c1ccc(CNC(=O)[C@@H]2Cc3ccc(cc3)NC(=O)CN3CCN(CC3)CC(=O)Nc3ccc(cc3)C[C@@H](NC(=O)OCc3ccccc3)C(=O)N2)cc1 [Inhibitor 11] |  | 5.33 | 4.33 | 3.98 | 8.27 |  |  |  |  |  |
| aprotinin |  |  |  |  |  | 10.00 | < 0.1% | increased | doubling | 4-5% |
| N=C(N)NCCCCNC(=O)[C@@H]1Cc2ccc(cc2)NC(=O)CCN2CCN(CCC(=O)Nc3ccc(cc3)C[C@@H](NS(=O)(=O)NC3CCCCC3)C(=O)N1)CC2 [Inhibitor 13] |  |  |  |  | 8.46 |  |  |  |  |  |
| CN(C)S(=O)(=O)N[C@@H]1Cc2ccc(cc2)NC(=O)CN2CCN(CC2)CC(=O)Nc2ccc(cc2)C[C@@H](C(=O)NCc2ccc(C(=N)N)cc2)NC1=O [Inhibitor 14] | 8.23 | 4.92 | 5.30 | 3.87 |  |  |  |  |  |  |
| N=C(N)c1ccc(CNC(=O)[C@@H]2Cc3ccc(cc3)NC(=O)CCN3CCN(CCC(=O)Nc4ccc(cc4)C[C@@H](NC(=O)Cc4ccccc4)C(=O)N2)CC3)cc1 [Inhibitor 4] |  | 5.10 | 4.38 | 3.72 | 8.10 |  |  |  |  |  |
| N=C(N)c1ccc(CNC(=O)[C@@H]2Cc3ccc(cc3)NC(=O)CCN3CCN(CCC(=O)Nc4ccc(cc4)C[C@@H](NC(=O)OCc4ccccc4)C(=O)N2)CC3)cc1 [Inhibitor 5] |  | 5.16 | 4.36 | 4.32 | 9.11 |  |  |  |  |  |
| N=C(N)c1ccc(CNC(=O)[C@@H]2Cc3ccc(cc3)NC(=O)CCN3CCN(CCC(=O)Nc4ccc(cc4)C[C@@H](NS(=O)(=O)NC4CCCCC4)C(=O)N2)CC3)cc1 [Inhibitor 1] | 10.28 | 6.22 | 4.77 | 5.13 |  |  |  |  |  |  |
| N=C(N)c1ccc(CNC(=O)[C@@H]2Cc3ccc(cc3)NC(=O)CN3CCN(CC3)CC(=O)Nc3ccc(cc3)C[C@@H](NS(=O)(=O)NC3CCCCC3)C(=O)N2)cc1 [Inhibitor 2] | 9.49 | 6.50 | 4.80 | 5.10 |  |  |  |  |  |  |
| CC1(C)C(=O)Nc2ccc(cc2)C[C@@H](C(=O)NCc2ccc(C(=N)N)cc2)NC(=O)[C@H](NS(=O)(=O)Cc2ccccc2)Cc2ccc(cc2)NC(=O)C(C)(C)N2CCN1CC2 [Inhibitor 7] |  | 7.11 | 6.21 | 5.84 | 8.66 |  |  |  |  |  |
| NCc1ccc(CNC(=O)[C@@H]2Cc3ccc(cc3)NC(=O)CCN3CCN(CCC(=O)Nc4ccc(cc4)C[C@@H](NS(=O)(=O)Cc4ccccc4)C(=O)N2)CC3)cc1 [Inhibitor 3] | 8.91 | 5.20 | 3.85 | 4.11 |  |  |  |  |  |  |
